# Laboratory results as given in DBAASP.
# Legend:
# Experiment in all cases: ≥ marks a high value that may be exact or a test limit, other limits are often not marked, values filed in µg/mL are converted to µM
# [1] = system: Escherichia coli ATCC 25404
# [2] = system: Escherichia coli O157
# [3] = system: Listeria monocytogenes
# [4] = system: Micrococcus luteus ATCC 10420
# [5] = system: Salmonella typhimurium
# [6] = system: Staphylococcus aureus ATCC 29213
# [7] = system: Staphylococcus aureus ATCC 43300
# [8] = system: Staphylococcus epidermidis ATCC 9709
# [9] = system: Acinetobacter baumannii NM8
# [10] = system: Candida albicans ATCC 90028
# [11] = system: Escherichia coli ATCC 25726
# [12] = system: Klebsiella pneumoniae ATCC 700603
# [13] = system: Pseudomonas aeruginosa ATCC 27853
# [14] = system: Staphylococcus aureus 127/08
# [15] = system: Staphylococcus aureus ATCC 25923
# [16] = system: Stenotrophomonas maltophilia B32/1
# [17] = system: Stenotrophomonas maltophilia B32/4
# [18] = system: Corynebacterium xerosis C875
# [19] = system: Escherichia coli DC2
# [20] = system: Escherichia coli UB1005
# [21] = system: Staphylococcus epidermidis C621
# [22] = system: Bacillus licheniformis X39
# [23] = system: Candida albicans ATCC 2002
# [24] = system: Enterococcus faecalis 981
# [25] = system: Enterococcus faecium 091299
# [26] = system: Escherichia coli ATCC 25922
# [27] = system: Psychrobacter faecalis X29
# [28] = system: Rhodococcus rhodochrous X15
# [29] = system: Staphylococcus carnosus KHS
# [30] = system: Botrytis cinerea
# [31] = system: Candida albicans ATCC 10231
# [32] = system: Escherichia coli ATCC 11775
# [33] = system: Staphylococcus aureus ATCC 12600
# [34] = system: Bacillus megaterium Bm11
# [35] = system: Staphylococcus aureus Cowan 1
# [36] = system: Staphylococcus capitis 1
# [37] = system: Yersinia pseudotuberculosis YPIII
smiles,measurement,setting,value
CC(C)C[C@H](NC(=O)[C@H](CC(C)C)NC(=O)[C@H](Cc1cnc[nH]1)NC(=O)[C@H](CO)NC(=O)[C@H](CC(C)C)NC(=O)[C@H](C)NC(=O)[C@H](CCCCN)NC(=O)[C@H](Cc1ccccc1)NC(=O)[C@H](CC(C)C)NC(=O)[C@H](C)NC(=O)CNC(=O)[C@H](CC(C)C)NC(=O)[C@@H](N)Cc1ccccc1)C(=O)O [FLGALFKALSHLL],MIC,[1],≥ 64 µM
same,MIC,[2],≥ 64 µM
same,MIC,[3],8 µM
same,MIC,[4],8 µM
same,MIC,[5],≥ 64 µM
same,MIC,[6],8 µM
same,MIC,[7],4 µM
same,MIC,[8],8 µM
CC[C@H](C)[C@@H]1NC(=O)[C@H](CCCCN)NC(=O)[C@@H](NC(=O)[C@H](C)NC(=O)[C@@H](NC(=O)[C@H](CC(C)C)NC(=O)[C@H](CC(=O)O)NC(=O)[C@@H](NC(=O)CNC(=O)[C@H](CC(C)C)NC(=O)[C@H](CCCCN)NC(=O)[C@H](C)NC(=O)[C@H](CC(C)C)NC(=O)[C@H](CC(=O)O)NC(=O)[C@H](CCCCN)NC(=O)CNC(=O)[C@H](CC(C)C)NC(=O)CNC(=O)[C@H](CCCCN)NC(=O)[C@H](CO)NC(=O)[C@H](C)NC(=O)[C@H](Cc2ccccc2)NC(=O)[C@H](CCCCN)NC(=O)[C@H](C)NC(=O)[C@@H](NC(=O)CNC(=O)[C@H](CCCN=C(N)N)NC(=O)[C@H](Cc2ccccc2)NC(=O)[C@@H](NC(=O)[C@H](CO)NC(=O)[C@H](CO)NC(=O)[C@H](Cc2ccccc2)NC(=O)CN)[C@@H](C)CC)C(C)C)C(C)C)C(C)C)CSSC[C@@H](C(=O)O)NC(=O)[C@H](CCC(N)=O)NC(=O)[C@H](CCCCN)NC(=O)[C@H](CO)NC1=O [GFSSIFRGVAKFASKGLGKDLAKLGVDLVACKISKQC],MIC,[9],6 µM
same,MIC,[10],10 µM
same,MIC,[11],5 µM
same,MIC,[12],5 µM
same,MIC,[13],5 µM
same,MIC,[14],6 µM
same,MIC,[15],5 µM
same,MIC,[16],6 µM
same,MIC,[17],3 µM
CC[C@H](C)[C@@H]1NC(=O)[C@H](CCCCN)NC(=O)[C@@H](NC(=O)[C@H](C)NC(=O)[C@@H](NC(=O)[C@H](CC(C)C)NC(=O)[C@H](CC(=O)O)NC(=O)[C@@H](NC(=O)CNC(=O)[C@H](CC(C)C)NC(=O)[C@H](CCCCN)NC(=O)[C@H](C)NC(=O)[C@H](CC(C)C)NC(=O)[C@H](CC(=O)O)NC(=O)[C@H](CCCCN)NC(=O)CNC(=O)[C@H](CC(C)C)NC(=O)CNC(=O)[C@@H](N)CCCCN)C(C)C)C(C)C)CSSC[C@@H](C(=O)O)NC(=O)[C@H](CCC(N)=O)NC(=O)[C@H](CCCCN)NC(=O)[C@H](CO)NC1=O [KGLGKDLAKLGVDLVACKISKQC],MIC,[9],≥ 200 µM
same,MIC,[11],≥ 200 µM
same,MIC,[14],≥ 200 µM
same,MIC,[15],> 200 µM
same,MIC,[16],≥ 200 µM
same,MIC,[17],≥ 200 µM
C[C@H](NC(=O)[C@H](C)NC(=O)[C@H](C)NC(=O)[C@H](Cc1cnc[nH]1)NC(=O)[C@H](C)NC(=O)[C@H](C)NC(=O)[C@H](C)NC(=O)[C@H](CCCCN)NC(=O)[C@@H](N)CCCCN)C(=O)N[C@@H](C)C(=O)N[C@@H](C)C(=O)N[C@@H](Cc1cnc[nH]1)C(=O)N[C@@H](C)C(=O)N[C@@H](C)C(=O)N[C@@H](Cc1c[nH]c2ccccc12)C(=O)N[C@@H](C)C(=O)N[C@@H](C)C(=O)N[C@@H](Cc1cnc[nH]1)C(=O)N[C@@H](C)C(=O)N[C@@H](C)C(=O)N[C@@H](C)C(=O)N[C@@H](CCCCN)C(=O)N[C@@H](CCCCN)C(=O)N[C@@H](CCCCN)C(=O)N[C@@H](CCCCN)C(N)=O [KKAAAHAAAAAHAAWAAHAAAKKKK],MIC,[18],≥ 32 µM
same,MIC,[19],≥ 64 µM
same,MIC,[20],≥ 64 µM
same,MIC,[21],≥ 64 µM
CC[C@H](C)[C@H](NC(=O)[C@H](CC(C)C)NC(=O)[C@@H]1CCCN1C(=O)[C@H](CC(C)C)NC(=O)[C@@H](N)Cc1ccccc1)C(=O)N[C@@H](C)C(=O)N[C@@H](CO)C(=O)N[C@H](C(=O)N[C@@H](C)C(=O)N[C@@H](C)C(=O)N[C@@H](CC(N)=O)C(=O)N[C@@H](CC(C)C)C(=O)N[C@H](C(=O)N1CCC[C@H]1C(=O)N[C@@H](CCCCN)C(=O)N[C@H](C(=O)N[C@@H](Cc1ccccc1)C(=O)N[C@H]1CSSC[C@@H](C(=O)O)NC(=O)[C@H](CCCCN)NC(=O)[C@H](CCCCN)NC(=O)[C@H]([C@@H](C)O)NC(=O)[C@H]([C@@H](C)CC)NC(=O)[C@H](CCCCN)NC1=O)[C@@H](C)CC)C(C)C)C(C)C [FLPLIASVAANLVPKIFCKITKKC],MIC,[22],2.4 µM
same,MIC,[23],9.5 µM
same,MIC,[24],≥ 75 µM
same,MIC,[25],≥ 37.5 µM
same,MIC,[26],150 µM
same,MIC,[27],9.5 µM
same,MIC,[28],1.2 µM
same,MIC,[15],2.4 µM
same,MIC,[29],19 µM
CC(C)C[C@H](NC(=O)[C@H](CC(C)C)NC(=O)[C@H](CO)NC(=O)[C@H](CCC(N)=O)NC(=O)[C@@H](NC(=O)[C@@H](NC(=O)[C@H](CCCCN)NC(=O)[C@@H]1CCCN1C(=O)[C@H](CC(=O)O)NC(=O)[C@@H](N)CC(C)C)C(C)C)C(C)C)C(N)=O [LDPKVVQSLL],MIC,[30],≥ 200 µM
same,MIC,[31],> 200 µM
same,MIC,[32],≥ 200 µM
same,MIC,[33],≥ 200 µM
CC[C@H](C)[C@H](NC(=O)[C@H](CC(C)C)NC(=O)[C@@H]1CCCN1C(=O)[C@H](CC(C)C)NC(=O)[C@@H](N)Cc1ccccc1)C(=O)NCC(=O)N[C@@H](CCCN=C(N)N)C(=O)N[C@H](C(=O)N[C@@H](CC(C)C)C(=O)N[C@@H](CO)C(=O)NCC(=O)N[C@@H](C)C(=O)N[C@@H](CC(C)C)C(N)=O)C(C)C [FLPLIGRVLSGAL],MIC,[34],20 µM
same,MIC,[31],20 µM
same,MIC,[26],> 40 µM
same,MIC,[35],≥ 40 µM
same,MIC,[36],≥ 40 µM
same,MIC,[37],≥ 40 µM
CC(C)C[C@H](NC(=O)[C@H](CC(C)C)NC(=O)[C@H](CCCCN)NC(=O)[C@H](CO)NC(=O)[C@H](CC(C)C)NC(=O)[C@H](C)NC(=O)[C@H](CCCCN)NC(=O)[C@H](Cc1c[nH]c2ccccc12)NC(=O)[C@H](CC(C)C)NC(=O)[C@H](C)NC(=O)CNC(=O)[C@H](CC(C)C)NC(=O)[C@@H](N)Cc1ccccc1)C(=O)O [FLGALWKALSKLL],MIC,[1],≥ 64 µM
same,MIC,[2],≥ 64 µM
same,MIC,[3],4 µM
same,MIC,[4],2 µM
same,MIC,[5],≥ 64 µM
same,MIC,[15],4 µM
same,MIC,[8],4 µM
